According to publication PMC4320118, “Micheliolide Derivative DMAMCL Inhibits Glioma Cell Growth In Vitro and In Vivo” (PLoS ONE, 2015):
“And” between values parts separate entries of the source, which are not always exact repeats. Equal values may be shown once. Read-outs that look alike come from different tables or passages of the source.

Assays:
intracerebral C6 glioma [1] = assay: Survival time analysis in C6 intracerebral glioma rats; type: in vivo, Wistar rats; conditions: for Survival (# of rats) End: 63 days, n = 10; for Survival: at 63 days; for Mean survival / Median survival: observation 63 days
Description: C6 tumors were maintained as subcutaneous tumors in rats.
The survival time analyses were performed in C6 intracerebral glioma rats. […] Animals were monitored daily for signs of mortality and weight. Rats were sacrificed when a loss of mobility, lethargy, hemorrhaging around the eyes, or a hunched posture was observed as previously described. The observation time was terminated when all the vehicle rats died. Then the other rats were euthanized by CO2 asphyxiation.

C6 cells [2] = assay: Apoptosis by Annexin V/PI flow cytometry, C6; type: cell-based, rat
Description: Glioma cells (10^4) in the logarithmic growth phase were seeded in 6-well plates for 24 h. Cells were treated with DMAMCL at 240, 120, 60, 30, 15, or 0 μM. They were removed from culture plates with 0.5% trypsin containing ethylene diamine tetraacetic acid (EDTA). Apoptosis of C6 cells was measured using an Annexin V and propidium iodide (PI) apoptosis detection kit (Invitrogen, USA) and a Beckman flow cytometer (Cytomics FC500, Beckman Coulter, USA).

intracerebral C6 glioma [3] = tested on: intracerebral C6 glioma
Description: Adult Wistar rats (120–180 g, age 4–8 weeks) were obtained from the Animal Center at the Academy of Military Medical Sciences and had animal certification of SCXK (army) 2012–001. Animals were housed in collective cages at a temperature of 23 ± 2°C and relative humidity of 40% to 70%. All rats had free access to food and water.
Intracerebral tumor implantations were performed according to the following procedures. C6 tumors were maintained as subcutaneous tumors in rats. Subcutaneous masses were excised, dissociated, and mixed with matrigel on ice (BD Biosciences) at a ratio of 1:1. After removing of the hair on the skull, a small midline incision in the scalp was gently made under anesthesia with 2% sodium pentobarbital at a dose of 40mg/kg. C6 cells in matrigel (0.1 mL of the cell/matrigel mixture containing 10^8 cells /mL) were carefully injected into the right frontal cortex by a special 16-gauge stainless steel needle with 5 mm needle tubing. Implantation coordinates were determined from Swanson’s Stereotaxic Atlas guidelines (1992): 1.0 mm anterior and 3.0 mm lateral to bregma, at a depth of 5.0 mm from the brain surface. […] The syringe was slowly retracted, the hole was sealed with bone wax, and the incision was sutured under aseptic conditions. […] Then 0.015 mg/kg buprenorphine (s.c.) was administered to relieve the pain. The rats were replaced in cages and allowed to recover from anesthesia.
Rats were divided into the following 5 treatment groups 24 h after surgery (n = 9 rats /group) according to rat weight: 1) vehicle (normal saline: NS); 2) vincristine (VCR) at 100μg/kg; 3) DMAMCL at 25 mg/kg; 4) DMAMCL at 50 mg/kg; and 5) DMAMCL at 100 mg/kg. All drugs were prepared in NS and administered once daily for 21 days. DMAMCL was administered orally, and VCR was injected into the caudal vein. Rats were weighed and monitored for signs of mortality daily. Twenty one days into the treatment, rats were euthanized via CO2 asphyxiation under deep anesthesia by sodium pentobarbital. Brains and tumors were separated from the cerebellum and medulla oblongata, and weighed, photographed, fixed in formalin, and embedded in paraffin for sectioning. The tumor: brain weight ratio was assessed to observe the degree of tumor cell growth in brain. Serial sections (5 μm in thickness) were stained by hematoxylin and eosin (HE).

C6 cells [4] = assay: Cell proliferation MTT assay, C6; type: cell-based; conditions: Rattus norvegicus, 72 h
Description: C6 and U-87MG cell lines were obtained from the American Type Culture Collection (ATCC) and cultured in our laboratory. Rat C6 glioma cells were cultured in F12K nutrient medium (Gibco, Grand Island, […]) supplemented with 15% horse serum (Auckland, NZ), 2.5% fetal bovine serum (FBS), 100 U/mL penicillin, and […] streptomycin (Gibco, Paisley, Scotland, UK). Human U-87MG cells were cultured in minimum essential medium (MEM) supplemented with 10% FBS, 1% nonessential amino acids, 100 U/mL penicillin, and […] streptomycin. Cells were cultured under a humidified atmosphere containing 5% CO2 at 37°C, and medium was changed every 1 to 2 days.
Tumor cells were seeded in 96-well plates at a density of 3500 cells/well. After 24 h in culture, cells were exposed to different concentrations of DMAMCL or medium alone (control) for 72 h. Cell viability was determined by MTT assays. Briefly, MTT regent (0.5 mg/mL) was added to wells, and cells were incubated for 4 h at 37°C. After removing the supernatant, 200 μL of dimethyl sulfoxide (DMSO) (Fluka, Switzerland) was added to dissolve formazan crystals. The absorbance at 570 nm was measured by a microplate reader (Thermo Labsystems, Helsinki, Finland). Control absorbance was taken as 100%. The absorbance of DMAMCL-treated cells was taken as percentage survival. […]

[5] = DMAMCL 25 mg/kg daily for 21 days
[6] = DMAMCL 50 mg/kg daily for 21 days
[7] = DMAMCL 100 mg/kg daily for 21 days
[8] = DMAMCL 25 mg/kg orally once daily for 21 days
[9] = DMAMCL 50 mg/kg orally once daily for 21 days
[10] = DMAMCL 100 mg/kg orally once daily for 21 days

`CC1=C2CC[C@@](C)(O)[C@@H]2[C@H]2OC(=O)[C@@H](CN(C)C)[C@@H]2CC1` [DMAMCL, dimethylaminomicheliolide] was tested, and the “Median survival of deceased animals” value (intracerebral C6 glioma [1]; [5]) was 28 days, the “Time of death End” value (intracerebral C6 glioma [1]; [5]) was 42 days and the “Time of death Start” value (intracerebral C6 glioma [1]; [5]) was 20 days. For the same compound, the “Survival (# of rats) End” value (intracerebral C6 glioma [1]; [5]) was 7 # of rats, the Survival (intracerebral C6 glioma [1]; [5]) was 70% and 70 ^** % and the Mean survival (intracerebral C6 glioma [1]; [5]) was 53.1 ± 16.8 days. The Median survival (intracerebral C6 glioma [1]; [5]) was 63 days, the “Median survival of deceased animals” value (intracerebral C6 glioma [1]; [6]) was 25 days and the “Time of death End” value (intracerebral C6 glioma [1]; [6]) was 25 days. The “Time of death Start” value (intracerebral C6 glioma [1]; [6]) was 25 days, the “Survival (# of rats) End” value (intracerebral C6 glioma [1]; [6]) was 9 # of rats and the Survival (intracerebral C6 glioma [1]; [6]) was 90% and 90 ^*** %. For the same compound, the Mean survival (intracerebral C6 glioma [1]; [6]) was 59.2 ± 12 days, the Median survival (intracerebral C6 glioma [1]; [6]) was 63 days and the “Median survival of deceased animals” value (intracerebral C6 glioma [1]; [7]) was 41 days. The “Time of death End” value (intracerebral C6 glioma [1]; [7]) was 41 days, the “Time of death Start” value (intracerebral C6 glioma [1]; [7]) was 41 days and the “Survival (# of rats) End” value (intracerebral C6 glioma [1]; [7]) was 9 # of rats. The Survival (intracerebral C6 glioma [1]; [7]) was 90% and 90 ^*** %, the Mean survival (intracerebral C6 glioma [1]; [7]) was 60.8 ± 7 days and the Median survival (intracerebral C6 glioma [1]; [7]) was 63 days. For the same compound, the “Survival longer than vehicle animals” value (intracerebral C6 glioma [1]; DMAMCL-treated rats) was ~ 30 days, the Surviving cells (C6 cells [2]; 240 μM) was “few surviving” and the “Early and late apoptosis and necrosis” value (C6 cells [2]; 24 hr post-treatment, dose-dependent) was “significantly increased early and late apoptosis and necrosis”. For the same compound, the “Body weight End” value (intracerebral C6 glioma [3]; [8]) was 223.8 ± 13.1 g, the “Inhibition (percent decrease in tumor weight compared to the vehicle group)” value (intracerebral C6 glioma [3]; [8]) was 59.9% and the Tumor weight (intracerebral C6 glioma [3]; [8]) was 0.29 ± 0.20 g. For the same compound, the Tumor/brain (intracerebral C6 glioma [3]; [8]) was 15.0 ± 9.5 %, the “Rats surviving to the end of the study” value (intracerebral C6 glioma [3]; DMAMCL 25 mg/kg, 21 days) was 89% and the “Body weight End” value (intracerebral C6 glioma [3]; [9]) was 227.5 ± 11.9 g. For the same compound, the “Inhibition (percent decrease in tumor weight compared to the vehicle group)” value (intracerebral C6 glioma [3]; [9]) was 78.7%, the Tumor weight (intracerebral C6 glioma [3]; [9]) was 0.15 ± 0.12 g and the Tumor/brain (intracerebral C6 glioma [3]; [9]) was 6.3 ± 3.9 %. The “Rats surviving to the end of the study” value (intracerebral C6 glioma [3]; DMAMCL 50 mg/kg, 21 days) was 89%, the “Body weight End” value (intracerebral C6 glioma [3]; [10]) was 224.0 ± 12.1 g and the “Inhibition (percent decrease in tumor weight compared to the vehicle group)” value (intracerebral C6 glioma [3]; [10]) was 87.5%. For the same compound, the “Signs of toxicity in tumor-bearing rats” value (intracerebral C6 glioma [3]; [10]) was “no signs of systemic or intracranial toxicity”, the Tumor weight (intracerebral C6 glioma [3]; [10]) was 0.09 ± 0.09 g and the Tumor/brain (intracerebral C6 glioma [3]; [10]) was 4.2 ± 3.1 %. For the same compound, the “Histopathology of brain tissue (HE)” value (intracerebral C6 glioma [3]; DMAMCL 100 mg/kg, 21 days) was “appeared similar to normal brain tissues”, the “Rats surviving to the end of the study” value (intracerebral C6 glioma [3]; DMAMCL 100 mg/kg, 21 days) was 100% and the IC50 (C6 cells [4]; read-out: IC50) was 27.2 ± 1.89 µM. It also gave an IC50 (C6 cells [4]; read-out: x0 (midpoint of logistic fit, Fig 3A) (converted)) of 27.2 ± 1.89 µM.
